Values of other authors in patent US8329229B2, “Steam distillation of catmint plants” (E I du Pont de Nemours and Company, priority 2006, dated 2012).

Tested on: insect
Conditions: see U.S. Ser. No. 05/112,166

In the case of `CC1COC(=O)C2C(C)CCC12` (stereo not shown) [dihydronepetalactone], the insect repellency is listed as “exhibits insect repellency”.
